PubChem BioAssay AID1259407 (Chemical Carcinogenesis Research Information System (CCRIS), 2018)
Activity calls are given as the source filed them. How the calls were made is not given here.

Test system: CCRIS mutagenicity, Ames/micronucleus/aberration tests
Experiment: CCRIS mutagenicity studies
[1] = Test System: AMES SALMONELLA TYPHIMURIUM, Strain/Indicator: TA98, Metabolic Activation: NONE, Method: STANDARD PLATE
[2] = Test System: AMES SALMONELLA TYPHIMURIUM, Strain/Indicator: TA98, Metabolic Activation: RAT, LIVER, S-9, AROCLOR 1254, Method: STANDARD PLATE
[3] = Test System: AMES SALMONELLA TYPHIMURIUM, Strain/Indicator: TA100, Metabolic Activation: NONE, Method: STANDARD PLATE
[4] = Test System: AMES SALMONELLA TYPHIMURIUM, Strain/Indicator: TA100, Metabolic Activation: RAT, LIVER, S-9, AROCLOR 1254, Method: STANDARD PLATE
[5] = Test System: AMES SALMONELLA TYPHIMURIUM, Strain/Indicator: TA1535, Metabolic Activation: NONE, Method: STANDARD PLATE
[6] = Test System: AMES SALMONELLA TYPHIMURIUM, Strain/Indicator: TA1535, Metabolic Activation: RAT, LIVER, S-9, AROCLOR 1254, Method: STANDARD PLATE
[7] = Test System: AMES SALMONELLA TYPHIMURIUM, Strain/Indicator: TA1537, Metabolic Activation: NONE, Method: STANDARD PLATE
[8] = Test System: AMES SALMONELLA TYPHIMURIUM, Strain/Indicator: TA1537, Metabolic Activation: RAT, LIVER, S-9, AROCLOR 1254, Method: STANDARD PLATE

## OC(O)C(Cl)(Cl)Cl
End Point: IN VITRO MICRONUCLEUS, Test System: HAMSTER V79 CELLS, Metabolic Activation: NONE
  mutagenic call: active; positive
End Point: IN VIVO MICRONUCLEUS, Test System: BLOOD LYMPHOCYTES, Species: HUMAN, Strain/Sex: INFANTS/MALE, FEMALE, Route: ORAL
  mutagenic call: active; positive
Test System: AMES SALMONELLA TYPHIMURIUM, Strain/Indicator: TA98, Metabolic Activation: HAMSTER LIVER S-9 (10%), AROCLOR 1254, Method: PREINCUBATION
  mutagenic call: inactive; negative
Test System: AMES SALMONELLA TYPHIMURIUM, Strain/Indicator: TA98, Metabolic Activation: NONE, Method: PREINCUBATION
  mutagenic call: inactive; negative
[1]
  mutagenic call: inactive; negative
Test System: AMES SALMONELLA TYPHIMURIUM, Strain/Indicator: TA98, Metabolic Activation: RAT LIVER S-9 (10%), AROCLOR 1254, Method: PREINCUBATION
  mutagenic call: inactive; negative
[2]
  mutagenic call: inactive; negative
Test System: AMES SALMONELLA TYPHIMURIUM, Strain/Indicator: TA98, Metabolic Activation: RAT, LIVER, S-9, PHENOBARBITAL AND 5,6-BENZOFLAVONE, Method: PREINCUBATION
  mutagenic call: inactive; negative
Test System: AMES SALMONELLA TYPHIMURIUM, Strain/Indicator: TA100, Metabolic Activation: HAMSTER LIVER S-9 (10%), AROCLOR 1254, Method: PREINCUBATION
  mutagenic call: active; positive
Test System: AMES SALMONELLA TYPHIMURIUM, Strain/Indicator: TA100, Metabolic Activation: NONE, Method: FLUCTUATION TEST
  mutagenic call: inactive; negative
[3]
  mutagenic call: inactive; negative
Test System: AMES SALMONELLA TYPHIMURIUM, Strain/Indicator: TA100, Metabolic Activation: RAT LIVER S-9 (10%), AROCLOR 1254, Method: PREINCUBATION
  mutagenic call: active; positive
Test System: AMES SALMONELLA TYPHIMURIUM, Strain/Indicator: TA100, Metabolic Activation: RAT, LIVER, S-9, AROCLOR 1254, Method: FLUCTUATION TEST
  mutagenic call: active; positive
[4]
  mutagenic call: inactive; negative
Test System: AMES SALMONELLA TYPHIMURIUM, Strain/Indicator: TA100, Metabolic Activation: RAT, LIVER, S-9, PHENOBARBITAL AND 5,6-BENZOFLAVONE, Method: PREINCUBATION
  mutagenic call: inactive; negative
Test System: AMES SALMONELLA TYPHIMURIUM, Strain/Indicator: TA1535, Metabolic Activation: HAMSTER LIVER S-9 (10%), AROCLOR 1254, Method: PREINCUBATION
  mutagenic call: inactive; negative
Test System: AMES SALMONELLA TYPHIMURIUM, Strain/Indicator: TA1535, Metabolic Activation: NONE, Method: PREINCUBATION
  mutagenic call: inactive; negative
[5]
  mutagenic call: inactive; negative
Test System: AMES SALMONELLA TYPHIMURIUM, Strain/Indicator: TA1535, Metabolic Activation: RAT LIVER S-9 (10%), AROCLOR 1254, Method: PREINCUBATION
  mutagenic call: inactive; negative
[6]
  mutagenic call: inactive; negative
Test System: AMES SALMONELLA TYPHIMURIUM, Strain/Indicator: TA1537, Metabolic Activation: HAMSTER LIVER S-9 (10%), AROCLOR 1254, Method: PREINCUBATION
  mutagenic call: inactive; negative
Test System: AMES SALMONELLA TYPHIMURIUM, Strain/Indicator: TA1537, Metabolic Activation: NONE, Method: PREINCUBATION
  mutagenic call: inactive; negative
[7]
  mutagenic call: inactive; negative
Test System: AMES SALMONELLA TYPHIMURIUM, Strain/Indicator: TA1537, Metabolic Activation: RAT LIVER S-9 (10%), AROCLOR 1254, Method: PREINCUBATION
  mutagenic call: inactive; negative
[8]
  mutagenic call: inactive; negative
Test System: AMES SALMONELLA TYPHIMURIUM, Strain/Indicator: TA1538, Metabolic Activation: NONE, Method: STANDARD PLATE
  mutagenic call: inactive; negative
Test System: AMES SALMONELLA TYPHIMURIUM, Strain/Indicator: TA1538, Metabolic Activation: RAT, LIVER, S-9, AROCLOR 1254, Method: STANDARD PLATE
  mutagenic call: inactive; negative
Test System: MOUSE LYMPHOMA, Strain/Indicator: L5178Y (TK+/TK- -3.7.2C), Metabolic Activation: NONE
  mutagenic call: active; positive

## CC[C@H]1OC(=O)[C@H](C)[C@@H](O[C@H]2C[C@@](C)(OC)[C@@H](O)[C@H](C)O2)[C@H](C)[C@@H](O[C@@H]2O[C@H](C)C[C@H](N(C)C)[C@H]2O)[C@](C)(O)C[C@@H](C)CN(C)[C@H](C)[C@@H](O)[C@]1(C)O
Test System: AMES SALMONELLA TYPHIMURIUM, Strain/Indicator: TA98, Metabolic Activation: MOUSE, LIVER, S-9, AROCLOR 1254, Method: STANDARD PLATE
  mutagenic call: inactive; negative
Test System: AMES SALMONELLA TYPHIMURIUM, Strain/Indicator: TA98, Metabolic Activation: MOUSE, LIVER, S-9, Method: STANDARD PLATE
  mutagenic call: inactive; negative
[1]
  mutagenic call: inactive; negative
[2]
  mutagenic call: inactive; negative
Test System: AMES SALMONELLA TYPHIMURIUM, Strain/Indicator: TA98, Metabolic Activation: RAT, LIVER, S-9, Method: STANDARD PLATE
  mutagenic call: inactive; negative
Test System: AMES SALMONELLA TYPHIMURIUM, Strain/Indicator: TA100, Metabolic Activation: MOUSE, LIVER, S-9, AROCLOR 1254, Method: STANDARD PLATE
  mutagenic call: inactive; negative
Test System: AMES SALMONELLA TYPHIMURIUM, Strain/Indicator: TA100, Metabolic Activation: MOUSE, LIVER, S-9, Method: STANDARD PLATE
  mutagenic call: inactive; negative
[3]
  mutagenic call: inactive; negative
[4]
  mutagenic call: inactive; negative
Test System: AMES SALMONELLA TYPHIMURIUM, Strain/Indicator: TA100, Metabolic Activation: RAT, LIVER, S-9, Method: STANDARD PLATE
  mutagenic call: inactive; negative
Test System: AMES SALMONELLA TYPHIMURIUM, Strain/Indicator: TA1535, Metabolic Activation: MOUSE, LIVER, S-9, AROCLOR 1254, Method: STANDARD PLATE
  mutagenic call: inactive; negative
Test System: AMES SALMONELLA TYPHIMURIUM, Strain/Indicator: TA1535, Metabolic Activation: MOUSE, LIVER, S-9, Method: STANDARD PLATE
  mutagenic call: inactive; negative
[5]
  mutagenic call: inactive; negative
[6]
  mutagenic call: inactive; negative
Test System: AMES SALMONELLA TYPHIMURIUM, Strain/Indicator: TA1535, Metabolic Activation: RAT, LIVER, S-9, Method: STANDARD PLATE
  mutagenic call: inactive; negative
Test System: AMES SALMONELLA TYPHIMURIUM, Strain/Indicator: TA1537, Metabolic Activation: MOUSE, LIVER, S-9, AROCLOR 1254, Method: STANDARD PLATE
  mutagenic call: inactive; negative
Test System: AMES SALMONELLA TYPHIMURIUM, Strain/Indicator: TA1537, Metabolic Activation: MOUSE, LIVER, S-9, Method: STANDARD PLATE
  mutagenic call: inactive; negative
[7]
  mutagenic call: inactive; negative
[8]
  mutagenic call: inactive; negative
Test System: AMES SALMONELLA TYPHIMURIUM, Strain/Indicator: TA1537, Metabolic Activation: RAT, LIVER, S-9, Method: STANDARD PLATE
  mutagenic call: inactive; negative
Test System: MOUSE LYMPHOMA, Strain/Indicator: L5178Y (TK+/TK-), Metabolic Activation: NONE, Method: SUSPENSION/PLATE
  mutagenic call: inactive; negative
Test System: MOUSE LYMPHOMA, Strain/Indicator: L5178Y (TK+/TK-), Metabolic Activation: RAT, LIVER, S-9, Method: SUSPENSION/PLATE
  mutagenic call: inactive; negative

## Cn1cc(C(=O)O)c(=O)c2ccc(/C=C/c3ccc([N+](=O)[O-])o3)nc21
Test System: AMES SALMONELLA TYPHIMURIUM, Strain/Indicator: TA100, Metabolic Activation: RAT, LIVER, S-9, KC500 OR PHENOBARBITAL, Method: LIQUID SUSPENSION
  mutagenic call: active; positive
